Like-named read-outs stand apart in the source and are kept apart here.
System: IL-1β production in PMA-differentiated THP-1 cells
Test: IL-1β production in PMA-differentiated THP-1 cells stimulated with gramicidin (hTHP-1 assay containing 2% fetal bovine serum)
Assay type: cell-based, human
Conditions: 2% fetal bovine serum, read-out: hTHP-1 IC50 (Average IC50 of compounds in hTHP-1 assay)
How it was run: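 THP-1 cells were differentiated with PMA 20 ng/ml for 16-18 h, then plated at 50,000 cells/well in RPMI with 2% FBS. They were preincubated 1 h with compound (100–0.0017 μM final, 0.37% DMSO), then stimulated with gramicidin 5 μM for 2 h. Supernatant IL-1β was measured by HTRF.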

[1] = Homo sapiens, THP-1, Table B1, class symbols
[2] = Homo sapiens, THP-1, Table B1, cells printed as numeric bound

SMILES | IC50 (Table B1, class symbols) | other results
CC(C)c1nc(-c2cccc(C(F)(F)F)c2)c(F)c(C(C)C)c1CC(=O)N=S(N)(=O)c1cnc(C(C)(C)O)s1 (single isomer, unassigned) [Example 202, N-(amino(2-(2-hydroxypropan-2-yl)thiazol-5-yl)(oxo)-λ^6-sulfaneylidene)-2-(5-fluoro-2,4-diisopropyl-6-(3-(trifluoromethyl)phenyl)pyridin-3-yl) acetamide] | 0.2 to 1 µM | 
CC(C)c1nc(-c2cccc(C(F)(F)F)c2)c(F)c(C(C)C)c1CC(=O)N=S(N)(=O)c1cnc(C(C)(C)O)s1 (single isomer, unassigned) [Example 203, (S) or (R)-N-(amino (2-(2-hydroxypropan-2-yl)thiazol-5-yl)(oxo)-λ^6-sulfaneylidene)-2-(5-fluoro-2,4-diisopropyl-6-(3-(trifluoromethyl)phenyl)pyridin-3-yl) acetamide] | 5 to 30 µM | 
CC(C)c1ncc(F)c(C(C)C)c1CC(=O)N=S(N)(=O)c1cc(C(C)(C)O)cs1 (single isomer, unassigned) [Example 208, N-(amino(4-(2-hydroxypropan-2-yl)thiophen-2-yl)(oxo)-λ^6-sulfaneylidene)-2-(5-fluoro-2,4-diisopropylpyridin-3-yl)acetamide] | 0.04 to 0.2 µM | 
CC(C)c1ncc(F)c(C(C)C)c1CC(=O)N=S(N)(=O)c1cc(C(C)(C)O)cs1 (single isomer, unassigned) [Example 209, (S) or (R)-N-(amino(4-(2-hydroxypropan-2-yl)thiophen-2-yl)(oxo)-λ^6-sulfaneylidene)-2-(5-fluoro-2,4-diisopropylpyridin-3-yl)acetamide] | 1 to 5 µM | 
CC(C)c1ncc(F)c(C(C)C)c1CC(=O)N=S(N)(=O)c1sc(C(C)(C)O)cc1F (single isomer, unassigned) [Example 210, (S) or (R)-N-(amino (3-fluoro-5-(2-hydroxypropan-2-yl)thiophen-2-yl)(oxo)-λ^6-sulfaneylidene)-2-(5-fluoro-2,4-diisopropylpyridin-3-yl)acetamide] | 5 to 30 µM | 
CC(C)c1ncc(F)c(C(C)C)c1CC(=O)N=S(N)(=O)c1sc(C(C)(C)O)cc1F (single isomer, unassigned) [Example 211, N-(amino(3-fluoro-5-(2-hydroxypropan-2-yl)thiophen-2-yl)(oxo)-λ^6-sulfaneylidene)-2-(5-fluoro-2,4-diisopropylpyridin-3-yl)acetamide] | 0.2 to 1 µM | 
CC(C)c1cc2c(c(C(C)C)c1CC(=O)N=S(N)(=O)c1cnc(C(C)(C)O)s1)CCC2 (single isomer, unassigned) [Example 213, (S) or (R)-N-(amino(2-(2-hydroxypropan-2-yl)thiazol-5-yl)(oxo)-λ^6-sulfaneylidene)-2-(4,6-diisopropyl-2,3-dihydro-1H-inden-5-yl)acetamide] |  | IC50 [1]: 1 to 5 µM
CC(C)c1cc(C(F)F)cc(C(C)C)c1CC(=O)N=S(N)(=O)c1ccc(CN(C)C)cc1F (single isomer, unassigned) [Example 214, (R) or (S)-N-(amino(4-((dimethylamino)methyl)-2-fluorophenyl) (oxo)-λ^6-sulfaneylidene)-2-(4-(difluoromethyl)-2,6-diisopropylphenyl) acetamide] | 0.04 to 0.2 µM | 
CC(C)c1cc(C(F)F)cc(C(C)C)c1CC(=O)N=S(N)(=O)c1ccc(CN(C)C)cc1F (single isomer, unassigned) [Example 215, (S) or (R)-N-(amino(4-((dimethylamino)methyl)-2-fluorophenyl) (oxo)-λ^6-sulfaneylidene)-2-(4-(difluoromethyl)-2,6-diisopropylphenyl) acetamide] | 1 to 5 µM | 
CC(C)c1cc2c(c(C(C)C)c1CC(=O)N=S(N)(=O)c1cc(C(C)(C)O)cs1)COC2 (single isomer, unassigned) [Example 216, (R) or (S)-N-(amino (4-(2-hydroxypropan-2-yl)thiophen-2-yl)(oxo)-λ^6-sulfaneylidene)-2-(4,6-diisopropyl-1,3-dihydroiso-benzofuran-5-yl)acetamide] | 0.2 to 1 µM | 
CC(C)c1cc2c(c(C(C)C)c1CC(=O)N=S(N)(=O)c1cc(C(C)(C)O)cs1)COC2 (single isomer, unassigned) [Example 217, (S) or (R)-N-(amino (4-(2-hydroxypropan-2-yl)thiophen-2-yl)(oxo)-λ^6-sulfaneylidene)-2-(4,6-diisopropyl-1,3-dihydro-isobenzofuran-5-yl)acetamide] | 5 to 30 µM | 
CC(C)c1cc(CCC2CCOCC2)cc(C(C)C)c1CC(=O)N=S(N)(=O)c1cc(C(C)(C)O)n(-c2ccccc2)n1 (single isomer, unassigned) [Example 234, (R) or (S)—N-(amino(5-(2-hydroxypropan-2-yl)-1-phenyl-1H-pyrazol-3-yl)(oxo)-λ^6-sulfaneylidene)-2-(2,6-diisopropyl-4-(2-(tetrahydro-2H-pyran-4-yl)ethyl)phenyl)acetamide] |  | IC50 [1]: 5 to 30 µM
CC(C)c1cc(CCC2CCOCC2)cc(C(C)C)c1CC(=O)N=[S@](N)(=O)c1cc(C(C)(C)O)n(-c2ccccc2)n1 (single isomer, unassigned) [Example 235, (S) or (R)-N-(amino(5-(2-hydroxypropan-2-yl)-1-phenyl-1H-pyrazol-3-yl)(oxo)-λ^6-2-(2,6-diisopropyl-4-(2-(tetrahydro-2H-pyran-4-yl)ethyl)phenyl)acetamide] |  | IC50 [2]: > 30 µM
NS(=O)(=NC(=O)Cc1c2c(cc3c1CCC3)CCC2)c1cnn2c1OCCC2 (single isomer, unassigned) [Example 269, (R) or (S)-N-(amino(6,7-dihydro-5H-pyrazolo[5,1-b][1,3]oxazin-3-yl)(oxo)-λ^6-sulfaneylidene)-2-(1,2,3,5,6,7-hexahydro-s-indacen-4-yl)acetamide] |  | IC50 [2]: > 30 µM
NS(=O)(=NC(=O)Cc1c2c(cc3c1CCC3)CCC2)c1cnn2c1OCCC2 (single isomer, unassigned) [Example 270, (S) or (R)-N-(amino(6,7-dihydro-5H-pyrazolo[5,1-b][1,3]oxazin-3-yl)(oxo)-λ^6-sulfaneylidene)-2-(1,2,3,5,6,7-hexahydro-s-indacen-4-yl)acetamide] |  | IC50 [1]: 5 to 30 µM
CC(C)c1cc(-c2ccc3c(c2)CCOC3)cc(C(C)C)c1CC(=O)N=S(N)(=O)c1sc(C(C)(C)O)nc1CO (single isomer, unassigned) [Example 271, (R) or (S)-N-(amino(4-(hydroxymethyl)-2-(2-hydroxypropan-2-yl)thiazol-5-yl)(oxo)-λ^6-sulfaneylidene)-2-(4-(isochroman-6-yl)-2,6-diisopropylphenyl) acetamide] | 0.2 to 1 µM | 
CC(C)c1cc(-c2ccc3c(c2)CCOC3)cc(C(C)C)c1CC(=O)N=S(N)(=O)c1sc(C(C)(C)O)nc1CO (single isomer, unassigned) [Example 272, (S) or (R)-N-(amino(4-(hydroxymethyl)-2-(2-hydroxypropan-2-yl)thiazol-5-yl)(oxo)-λ^6-sulfaneylidene)-2-(4-(isochroman-6-yl)-2,6-diisopropylphenyl) acetamide] | 5 to 30 µM | 
COCc1cc(C(C)C)c(CC(=O)N=S(N)(=O)c2ncc(C(C)(C)O)s2)c(C(C)C)n1 (single isomer, unassigned) [Example 273, (S) or (R)-N-(amino (5-(2-hydroxypropan-2-yl)thiazol-2-yl)(oxo)-λ^6-sulfaneylidene)-2-(2,4-diisopropyl-6-(methoxymethyl)pyridin-3-yl)acetamide] |  | IC50 [2]: > 30 µM
COCc1cc(C(C)C)c(CC(=O)N=S(N)(=O)c2ncc(C(C)(C)O)s2)c(C(C)C)n1 (single isomer, unassigned) [Example 274, (R) or (S)-N-(amino (5-(2-hydroxypropan-2-yl)thiazol-2-yl)(oxo)-λ^6-sulfaneylidene)-2-(2,4-diisopropyl-6-(methoxymethyl)pyridin-3-yl)acetamide] |  | IC50 [1]: 1 to 5 µM
CC(C)c1cc(C#N)c(F)c(C(C)C)c1CC(=O)N=S(N)(=O)c1cc(C(C)(C)O)n(-c2ccccc2)n1 (single isomer, unassigned) [Example 275, (R) or (S)-N-(amino (5-(2-hydroxypropan-2-yl)-1-phenyl-1H-pyrazol-3-yl)(oxo)-λ^6-sulfaneylidene)-2-(4-cyano-3-fluoro-2,6-diisopropylphenyl) acetamide] | 0.2 to 1 µM | 
CC(C)c1cc(C#N)c(F)c(C(C)C)c1CC(=O)N=S(N)(=O)c1cc(C(C)(C)O)n(-c2ccccc2)n1 (single isomer, unassigned) [Example 276, (S) or (R)-N-(amino (5-(2-hydroxypropan-2-yl)-1-phenyl-1H-pyrazol-3-yl)(oxo)-λ^6-sulfaneylidene)-2-(4-cyano-3-fluoro-2,6-diisopropylphenyl) acetamide] | 5 to 30 µM | 
CC(C)c1cc(C#CC2CCOCC2)cc(C(C)C)c1CC(=O)N=S(N)(=O)c1cc(C(C)(C)O)n(-c2ccccc2)n1 (single isomer, unassigned) [Example 277, (R) or (S)-N-(amino (5-(2-hydroxypropan-2-yl)-1-phenyl-1H-pyrazol-3-yl)(oxo-λ^6-sulfaneylidene)-2-(2,6-diisopropyl-4-((tetrahydro-2H-pyran-4-yl)ethynyl)phenyl)acetamide] |  | IC50 [1]: 0.2 to 1 µM
CC(C)c1cc(C#CC2CCOCC2)cc(C(C)C)c1CC(=O)N=S(N)(=O)c1cc(C(C)(C)O)n(-c2ccccc2)n1 (single isomer, unassigned) [Example 278, (S) or (R)-N-(amino(5-(2-hydroxypropan-2-yl)-1-phenyl-1H-pyrazol-3-yl)(oxo)-λ^6-sulfaneylidene)-2-(2,6-diisopropyl-4-((tetrahydro-2H-pyran-4-yl)ethynyl)phenyl)acetamide] |  | IC50 [2]: > 30 µM

Reference: patent US20230059136A1, “THE COMPOUNDS AND COMPOSITIONS FOR TREATING CONDITIONS ASSOCIATED WITH NLRP ACTIVITY” (Novartis AG, priority 2018, published 2023)
